Laboratory results from patent US10870638B2, “Pyridazinone compound or its salt, and herbicide containing it” (ISHIHARA SANGYO KAISHA, LTD., priority 2016, dated 2020).

Columns and labels:
Assay type in all cases: in vivo
Details in all cases: 14th day after application
[1] = tested on: green foxtail (Setaria viridis L.); test: Test Example 2: soil application on the day after sowing, growth inhibition rate on 14th day
In short: (§1)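 Field soil in 1/300,000 ha pots was sown, and the next day compounds formulated as wettable powders or emulsifiable concentrates were diluted in water (1,000 L/ha) and soil-sprayed at the prescribed active ingredient rates. Growth inhibition was scored visually 14 days later, 0 (untreated) to 100 (complete kill).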

[2] = tested on: velvetleaf (Abutilon theophrasti MEDIC.); test: as above
In short: as §1

[3] = tested on: soybean (Glycine max Merr.); test: as above
In short: as §1

[4] = tested on: barnyardgrass (Echinochloa crus-qalli L.); test: as above
In short: as §1

[5] = tested on: crabgrass (Digitaris sanquinalis L.); test: as above
In short: as §1

[6] = tested on: wheat (Triticum aestivum L.); test: as above
In short: as §1

rice (Oryza sativa L.) [7] = test: as above
In short: as §1

[8] = tested on: redroot pigweed (Amaranthus retroflexus L.); test: as above
In short: as §1

[9] = tested on: prickly sida (Sida spinosa L.); test: as above
In short: as §1

corn (Zea mays L.) [10] = test: as above
In short: as §1

[11] = tested on: green foxtail (Setaria viridis L.); test: Test Example 1: foliar treatment, growth inhibition rate on 14th day
In short: (§2)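 Sow seeds in upland soil pots; at target leaf stage (wild oat 0.4–1.2, rice 0.2–2.7, foxtail 0.5–3.2, soybean primary leaf) spray formulated compound in water, 1,000 L/ha, 0.1 vol % surfactant. Score inhibition visually at day 14, 0–100%.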

[12] = tested on: soybean (Glycine max Merr.); test: as above
In short: as §2

[13] = tested on: barnyardgrass (Echinochloa crus-qalli L.); test: as above
In short: (§3)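 Using a small sprayer, formulated compound in water (0.1 vol % surfactant, 1,000 L/ha) was applied to seedlings grown from seed in upland soil. Fourteen days on, growth state was observed and expressed as percent inhibition from 0 to 100.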

[14] = tested on: italian ryegrass (Lolium multiflorum Lam.); test: as above
In short: as §3

[15] = tested on: wild oat (Avena fatua L.); test: as above
In short: as §2

[16] = tested on: wheat (Triticum aestivum L.); test: as above
In short: as §3

rice (Oryza sativa L.) [17] = test: as above
In short: as §2

[18] = tested on: redroot pigweed (Amaranthus retroflexus L.); test: as above
In short: as §3

[19] = tested on: crabgrass (Digitaria sanquinalis L.); test: as above
In short: as §3

corn (Zea mays L.) [20] = test: as above
In short: as §3

[21] = active ingredient amount 500 g/ha
[22] = active ingredient amount 31 g/ha

CC(=O)Oc1c(C)nn(C)c(=O)c1-c1cc(Oc2ccc3ccccc3n2)ccc1C [Compound 2-142]
Growth inhibition rate (%) Green foxtail [1, 21]: 93%
Growth inhibition rate (%) Velvetleaf [2, 21]: 0%
Growth inhibition rate (%) Soybean [3, 21]: 0%
Growth inhibition rate (%) Barnyardgrass [4, 21]: 100%
Growth inhibition rate (%) Crabgrass [5, 21]: 98%
Growth inhibition rate (%) Wheat [6, 21]: 0%
Growth inhibition rate (%) Rice (rice (Oryza sativa L.) [7]; [21]): 90%
Growth inhibition rate (%) Redroot pigweed [8, 21]: 0%
Growth inhibition rate (%) Prickly sida [9, 21]: 0%
Growth inhibition rate (%) Corn (corn (Zea mays L.) [10]; [21]): 0%
Growth inhibition rate (%) Green foxtail [11, 21]: 90%
Growth inhibition rate (%) Soybean [12, 21]: 25%
Growth inhibition rate (%) Barnyardgrass [13, 21]: 100%
Growth inhibition rate (%) Italian ryegrass [14, 21]: 0%
Growth inhibition rate (%) Wild oat [15, 21]: 50%
Growth inhibition rate (%) Wheat [16, 21]: 50%
Growth inhibition rate (%) Rice (rice (Oryza sativa L.) [17]; [21]): 80%
Growth inhibition rate (%) Redroot pigweed [18, 21]: 0%
Growth inhibition rate (%) Crabgrass [19, 21]: 83%
Growth inhibition rate (%) Corn (corn (Zea mays L.) [20]; [21]): 20%

CC(=O)Oc1c(C)nn(C)c(=O)c1-c1cc(Oc2cc(C(F)(F)F)c(C(F)(F)F)cn2)ccc1C [Compound 2-126]
Growth inhibition rate (%) Green foxtail [1, 22]: 100%
Growth inhibition rate (%) Velvetleaf [2, 22]: 0%
Growth inhibition rate (%) Soybean [3, 22]: 0%
Growth inhibition rate (%) Barnyardgrass [4, 22]: 100%
Growth inhibition rate (%) Crabgrass [5, 22]: 98%
Growth inhibition rate (%) Wheat [6, 22]: 10%
Growth inhibition rate (%) Rice (rice (Oryza sativa L.) [7]; [22]): 0%
Growth inhibition rate (%) Redroot pigweed [8, 22]: 0%
Growth inhibition rate (%) Prickly sida [9, 22]: 0%
Growth inhibition rate (%) Corn (corn (Zea mays L.) [10]; [22]): 30%
Growth inhibition rate (%) Green foxtail [11, 22]: 100%
Growth inhibition rate (%) Soybean [12, 22]: 20%
Growth inhibition rate (%) Barnyardgrass [13, 22]: 100%
Growth inhibition rate (%) Italian ryegrass [14, 22]: 100%
Growth inhibition rate (%) Wild oat [15, 22]: 100%
Growth inhibition rate (%) Wheat [16, 22]: 99%
Growth inhibition rate (%) Rice (rice (Oryza sativa L.) [17]; [22]): 93%
Growth inhibition rate (%) Redroot pigweed [18, 22]: 0%
Growth inhibition rate (%) Crabgrass [19, 22]: 100%
Growth inhibition rate (%) Corn (corn (Zea mays L.) [20]; [22]): 100%

C=CCn1ncc(O)c(-c2cc(Oc3ncc(C(F)(F)F)cc3Cl)ccc2C)c1=O [1-167]
Growth inhibition rate (%) Green foxtail [1, 22]: 95%
Growth inhibition rate (%) Velvetleaf [2, 22]: 0%
Growth inhibition rate (%) Soybean [3, 22]: 0%
Growth inhibition rate (%) Barnyardgrass [4, 22]: 85%
Growth inhibition rate (%) Crabgrass [5, 22]: 100%
Growth inhibition rate (%) Wheat [6, 22]: 0%
Growth inhibition rate (%) Rice (rice (Oryza sativa L.) [7]; [22]): 0%
Growth inhibition rate (%) Redroot pigweed [8, 22]: 0%
Growth inhibition rate (%) Prickly sida [9, 22]: 0%
Growth inhibition rate (%) Corn (corn (Zea mays L.) [10]; [22]): 0%
Growth inhibition rate (%) Green foxtail [11, 22]: 100%
Growth inhibition rate (%) Soybean [12, 22]: 10%
Growth inhibition rate (%) Barnyardgrass [13, 22]: 98%
Growth inhibition rate (%) Italian ryegrass [14, 22]: 93%
Growth inhibition rate (%) Wild oat [15, 22]: 98%
Growth inhibition rate (%) Wheat [16, 22]: 40%
Growth inhibition rate (%) Rice (rice (Oryza sativa L.) [17]; [22]): 35%
Growth inhibition rate (%) Redroot pigweed [18, 22]: 0%
Growth inhibition rate (%) Crabgrass [19, 22]: 99%
Growth inhibition rate (%) Corn (corn (Zea mays L.) [20]; [22]): 100%

CC(=O)Oc1c(C)nn(C)c(=O)c1-c1cc(Oc2ncc(C(F)(F)F)cc2F)ccc1C [Compound 2-63]
Growth inhibition rate (%) Green foxtail [1, 22]: 98%
Growth inhibition rate (%) Velvetleaf [2, 22]: 0%
Growth inhibition rate (%) Soybean [3, 22]: 0%
Growth inhibition rate (%) Barnyardgrass [4, 22]: 100%
Growth inhibition rate (%) Crabgrass [5, 22]: 100%
Growth inhibition rate (%) Wheat [6, 22]: 0%
Growth inhibition rate (%) Rice (rice (Oryza sativa L.) [7]; [22]): 15%
Growth inhibition rate (%) Redroot pigweed [8, 22]: 0%
Growth inhibition rate (%) Prickly sida [9, 22]: 0%
Growth inhibition rate (%) Corn (corn (Zea mays L.) [10]; [22]): 0%
Growth inhibition rate (%) Green foxtail [11, 22]: 100%
Growth inhibition rate (%) Soybean [12, 22]: 0%
Growth inhibition rate (%) Barnyardgrass [13, 22]: 100%
Growth inhibition rate (%) Italian ryegrass [14, 22]: 100%
Growth inhibition rate (%) Wild oat [15, 22]: 100%
Growth inhibition rate (%) Wheat [16, 22]: 95%
Growth inhibition rate (%) Rice (rice (Oryza sativa L.) [17]; [22]): 90%
Growth inhibition rate (%) Redroot pigweed [18, 22]: 0%
Growth inhibition rate (%) Crabgrass [19, 22]: 98%
Growth inhibition rate (%) Corn (corn (Zea mays L.) [20]; [22]): 100%

CCc1nn(C)c(=O)c(-c2cc(Oc3nc4ccc(Cl)cc4o3)ccc2C)c1O [Compound 2-89]
Growth inhibition rate (%) Green foxtail [1, 22]: 50%
Growth inhibition rate (%) Velvetleaf [2, 22]: 0%
Growth inhibition rate (%) Soybean [3, 22]: 0%
Growth inhibition rate (%) Barnyardgrass [4, 22]: 95%
Growth inhibition rate (%) Crabgrass [5, 22]: 30%
Growth inhibition rate (%) Wheat [6, 22]: 0%
Growth inhibition rate (%) Rice (rice (Oryza sativa L.) [7]; [22]): 30%
Growth inhibition rate (%) Redroot pigweed [8, 22]: 0%
Growth inhibition rate (%) Prickly sida [9, 22]: 0%
Growth inhibition rate (%) Corn (corn (Zea mays L.) [10]; [22]): 0%
Growth inhibition rate (%) Green foxtail [11, 22]: 93%
Growth inhibition rate (%) Soybean [12, 22]: 20%
Growth inhibition rate (%) Barnyardgrass [13, 22]: 95%
Growth inhibition rate (%) Italian ryegrass [14, 22]: 20%
Growth inhibition rate (%) Wild oat [15, 22]: 0%
Growth inhibition rate (%) Wheat [16, 22]: 0%
Growth inhibition rate (%) Rice (rice (Oryza sativa L.) [17]; [22]): 10%
Growth inhibition rate (%) Redroot pigweed [18, 22]: 0%
Growth inhibition rate (%) Crabgrass [19, 22]: 65%
Growth inhibition rate (%) Corn (corn (Zea mays L.) [20]; [22]): 30%

Cc1ccc(Oc2ncc(C(F)(F)F)cc2Cl)cc1-c1c(O)c(C)nn(C)c1=O [1-1]
Growth inhibition rate (%) Green foxtail [1, 22]: 100%
Growth inhibition rate (%) Velvetleaf [2, 22]: 0%
Growth inhibition rate (%) Soybean [3, 22]: 0%
Growth inhibition rate (%) Barnyardgrass [4, 22]: 85%
Growth inhibition rate (%) Crabgrass [5, 22]: 100%
Growth inhibition rate (%) Wheat [6, 22]: 0%
Growth inhibition rate (%) Rice (rice (Oryza sativa L.) [7]; [22]): 20%
Growth inhibition rate (%) Redroot pigweed [8, 22]: 0%
Growth inhibition rate (%) Prickly sida [9, 22]: 0%
Growth inhibition rate (%) Corn (corn (Zea mays L.) [10]; [22]): 50%
Growth inhibition rate (%) Green foxtail [11, 22]: 99%
Growth inhibition rate (%) Soybean [12, 22]: 0%
Growth inhibition rate (%) Barnyardgrass [13, 22]: 100%
Growth inhibition rate (%) Italian ryegrass [14, 22]: 98%
Growth inhibition rate (%) Wild oat [15, 22]: 98%
Growth inhibition rate (%) Wheat [16, 22]: 65%
Growth inhibition rate (%) Rice (rice (Oryza sativa L.) [17]; [22]): 80%
Growth inhibition rate (%) Redroot pigweed [18, 22]: 10%
Growth inhibition rate (%) Crabgrass [19, 22]: 95%
Growth inhibition rate (%) Corn (corn (Zea mays L.) [20]; [22]): 90%
